Where two headings read alike, the source gives them in different places.
Legend:
OX1R = target: T1, OX1R (Homo sapiens, UniProt O43613); experiment: OX1R potency as described in WO2016/034882; conditions: for IC50: read-out: OX1R IC50 (corresponds to pIC50) (converted)
T1 sequence (O43613 1-425): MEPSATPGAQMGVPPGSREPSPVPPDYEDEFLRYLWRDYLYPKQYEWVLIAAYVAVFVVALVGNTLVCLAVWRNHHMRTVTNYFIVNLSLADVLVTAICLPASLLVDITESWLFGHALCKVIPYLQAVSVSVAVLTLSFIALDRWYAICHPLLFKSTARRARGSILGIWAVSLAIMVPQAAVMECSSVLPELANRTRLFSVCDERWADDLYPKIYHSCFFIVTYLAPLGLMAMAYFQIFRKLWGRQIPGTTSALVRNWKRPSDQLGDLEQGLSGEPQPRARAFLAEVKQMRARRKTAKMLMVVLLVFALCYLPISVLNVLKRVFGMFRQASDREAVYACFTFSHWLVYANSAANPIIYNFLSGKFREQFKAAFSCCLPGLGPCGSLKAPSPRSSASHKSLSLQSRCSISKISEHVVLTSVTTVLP

OX2R [1] = target: T2, OX2R (Homo sapiens, UniProt O43614); conditions: cited from earlier work
T2 sequence (O43614 1-444): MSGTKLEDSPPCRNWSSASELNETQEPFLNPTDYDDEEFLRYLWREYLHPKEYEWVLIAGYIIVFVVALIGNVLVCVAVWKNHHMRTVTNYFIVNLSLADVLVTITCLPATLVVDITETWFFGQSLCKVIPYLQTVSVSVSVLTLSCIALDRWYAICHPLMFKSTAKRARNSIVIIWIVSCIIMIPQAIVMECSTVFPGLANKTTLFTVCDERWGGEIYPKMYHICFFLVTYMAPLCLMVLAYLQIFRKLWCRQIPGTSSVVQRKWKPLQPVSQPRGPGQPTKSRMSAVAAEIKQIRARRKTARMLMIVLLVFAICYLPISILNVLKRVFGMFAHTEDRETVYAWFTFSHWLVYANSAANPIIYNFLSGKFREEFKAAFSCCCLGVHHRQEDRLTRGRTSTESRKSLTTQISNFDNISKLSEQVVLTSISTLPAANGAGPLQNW

OX2R [2] = target: T2, OX2R; experiment: OX2R potency as described in WO2016/034882; conditions: read-out: OX2R IC50 (corresponds to pIC50) (converted)
human Orexin 1 receptor = target: T3, human Orexin 1 receptor (Homo sapiens, UniProt O43613); experiment: Assay A: OX1R IP1 (in vitro OX1R potency); assay type: cell-based; conditions: for Kb: Table 3
T3 construct: stably expressing the full-length human Orexin 1 receptor; expressed in transfected cells; host or cells: CHO-K1 (CHO-K1/hOX1), co-expressing aequorin
T3 sequence (O43613 1-425): T1 sequence (O43613 1-425)

[3] = Assay C: Human MST t1/2 (stability in human liver microsomes); assay type: in vitro ADME; conditions: for half-life: human liver microsomes
human orexin 2 receptor = target: T4, human orexin 2 receptor (Homo sapiens, UniProt O43614); experiment: Assay B: OX2R IP1 (in vitro OX2R potency); assay type: cell-based; conditions: Table 3; 0.5 nM Orexin A concentration
T4 construct: stably expressing the full-length human orexin 2 receptor; expressed in transfected cells; host or cells: CHO-K1 (CHO-K1/hOX2), co-expressing aequorin
T4 sequence (O43614 1-444): T2 sequence (O43614 1-444)
Source text: Activation of the orexin receptors expressed in cell lines results in an increase in intracellular IP3 concentration. IP1, a downstream metabolite of IP3, accumulates in cells following receptor activation and is stable in the presence of LiCl. Using Homogeneous Time-Resolved Fluorescence technology with Lumi4-Tb cryptate (commercially available from Cisbio Bioassay.) and a suitable fluorescence plate reader. This functional response is detectable and quantifiable as described in Trinquet et al. Anal. […] Curr. Chem. Genomics 2009, 3, 22-32. This technique is used to characterize pharmacological modification of the orexin receptors. B. In Vitro Testing of OX2R Potency: OX2R IP1 IP1 measurements are performed in CHO-K1 cells stably expressing the full-length human orexin 2 receptor and the aequorin photoprotein. Cells are cultivated in Ham's nutrient mixture F12 medium with 10% fetal calf serum, in a 37° C., 95% humidity and 5% CO2 incubator. The CHO-K1/hOX2 cell mass is expanded to larger cell numbers. The cells are obtained as frozen cells in cryo-vials and stored until use at -150° C. The viability of the cells after thawing is >90%. In preparation for the assay, 24 hours before the assay, the cells are thawed at 37° C. and immediately diluted with cell culture medium. After centrifugation, the cell pellet is resuspended in medium and then distributed into the assay plates with a density of 5000 cells/25 μL per well. The plates are incubated for one hour at room temperature to reduce edge effects before they are incubated for 24 hours at 37° C./5% CO2. […] On the day of the assay, cells in the plate are washed twice with 60 μL assay buffer (20 μL buffer remained in the wells after washing), followed by adding 5 μL per well of compounds diluted in assay buffer. […] The assay plate is incubated for 60 minutes at 37° C. Then 5 μL per well of Anti-IP1-Cryptate Tb solution and 5 μL per well of IP1-d2 dilution are added to all well of the plate and the plate is incubated for a further 60 minutes light protected at room temperature. […] The ratio between the emission at 665 nm and 615 is calculated by the reader. […] AssayExplorer (Accelrys). In order to establish an agonist concentration independent parameter, Kb values are calculated using the following equation: […] Sci. 1993, 14(4), 110-112).

Row | Structure (SMILES) | OX2R Kb/OX1R Kb (human Orexin 1 receptor) | Kb (human Orexin 1 receptor; Orexin A concentration 0.5 nM) [nM] | half-life [3] [min] | Kb (human orexin 2 receptor) [nM] | further results
1 | CC[C@@H](CNc1ncc(C(F)(F)F)cn1)N(C)C(=O)c1nc(C)ccc1-n1nccn1 [Ex 46 in WO2016/ 034882] | – | – | – | – | OX2R IC50/OX1R IC50 (OX1R; Table 1 of WO2016/034882): 390; OX2R IC50/OX1R IC50 (OX1R; Table 2 of WO2016/034882): > 312; IC50 (OX1R; Table 2 of WO2016/034882): 32 nM; OX2R IC50/OX1R IC50 (OX1R; Table 3 of WO2016/034882): 3200; IC50 (OX1R; Table 3 of WO2016/034882): 3.2 nM; OX2R pIC50 (OX2R [1]; Table 2 of WO2016/034882): < 5.0; OX2R pIC50 (OX2R [1]; Table 3 of WO2016/034882): < 5.0; IC50 (OX2R [2]; Table 1 of WO2016/034882): 7800 nM; IC50 (OX2R [2]; Table 3 of WO2016/034882): ≥ 10000 nM
2 | CCN(C(=O)c1cc(F)cnc1-c1ncccn1)[C@@H](C)COc1ccc(C(F)(F)F)cn1 [Example 70] | 691 | 1.5 | > 130 | 1040 | –
3 | CCN(C(=O)c1cnccc1-n1nccn1)[C@@H](C)COc1ccc(C(F)(F)F)cn1 [Example 36] | 240 | 1 | 15 | 240 | –
4 | CCN(C(=O)c1ccc(C(F)(F)F)nc1-c1ccn(C)n1)[C@@H](C)COc1ccc(C(F)(F)F)cn1 [Example 28] | 353 | 2 | 11 | 705 | –
5 | CCN(C(=O)c1nc(C)ccc1-n1nccn1)[C@@H](C)COc1cnc(C(F)(F)F)cn1 [Example 10] | 300 | 2.5 | > 130 | 749 | –
6 | CCN(C(=O)c1ncc(C)cc1-n1cccn1)[C@@H](C)COc1ccc(C(F)(F)F)cn1 [Example 64] | 688 | – | 20 | 275 | Kb (human Orexin 1 receptor; Orexin A concentration 50 nM): 0.4 nM
7 | CCN(C(=O)c1ncccc1-c1ccccc1)[C@@H](C)COc1ncc(C(F)(F)F)cn1 [Example 15] | 157 | 4.5 | 96 | 705 | –
8 | CCN(C(=O)c1cc(C)cnc1-c1ccn(C)n1)[C@@H](C)COc1ccc(C(F)(F)F)cn1 [Example 27] | – | 0.87 | 31 | 134 | Kb (human Orexin 1 receptor; Orexin A concentration 50 nM): 0.69 nM
9 | CCN(C(=O)c1nc(C)ccc1-c1ncccn1)[C@@H](C)COc1cnc(C(F)(F)F)cn1 [Example 53] | 105 | 3.2 | > 130 | 337 | stability in human liver microsomes (in words) ([3]; compared with closest prior art compounds in WO2016/034882): markedly improved stability in human liver microsomes
10 | CCN(C(=O)c1cc(F)cnc1-n1nccn1)[C@@H](C)COc1ncc(C(F)(F)F)cc1F [Example 21] | 817 | 3.3 | > 130 | 2700 | –
11 | CCN(C(=O)c1nc(C)ccc1-n1nccn1)[C@@H](C)COc1ccc(Cl)cn1 [Example 8] | 158 | – | 25 | 71 | Kb (human Orexin 1 receptor; Orexin A concentration 50 nM): 0.45 nM
12 | CCN(C(=O)c1cccnc1-n1nccn1)[C@@H](C)COc1ccc(C(F)(F)F)cn1 [Example 61] | 294 | 2.31 | > 130 | 678 | –
13 | CCN(C(=O)c1cc(F)cnc1-c1nnc(C)o1)[C@@H](C)COc1ccc(C(F)(F)F)cn1 [Example 59] | 214 | 31 | > 130 | 6640 | –
14 | CC[C@@H](CNc1ncc(C(F)(F)F)cn1)N(CC)C(=O)c1nc(C)ccc1-n1nccn1 [Ex 73 in WO2016/ 034882] | – | – | – | – | OX2R pIC50 (OX2R [1]; Table 3 of WO2016/034882): < 6.0
15 | CCN(C(=O)c1cnc(C)nc1-c1ccccc1)[C@@H](C)COc1cnc(C(F)(F)F)cn1 [Example 9] | 522 | 1.8 | > 130 | 939 | –
16 | CC[C@@H](CNc1cnc(C(F)(F)F)cn1)N(CC)C(=O)c1nc(C)ccc1-n1nccn1 [Ex 70 in WO2016/ 034882] | 319 | – | – | – | IC50 (OX1R; Table 3 of WO2016/034882): 1.6 nM; Kb (human Orexin 1 receptor; Orexin A concentration 50 nM): 0.135 nM; IC50 (OX2R [2]; Table 3 of WO2016/034882): > 5000 nM
17 | CCN(C(=O)c1cc(F)cnc1-n1nccn1)[C@@H](C)COc1ccc(Cl)cn1 [Example 22] | 215 | 4.7 | 82 | 1010 | –
18 | CCN(C(=O)c1cc(OC)ncc1-c1ccn(C)n1)[C@@H](C)COc1ccc(C(F)(F)F)cn1 [Example 38] | 135 | 2.4 | 12 | 323 | –
19 | CCN(C(=O)c1cccnc1-n1nccn1)[C@@H](C)COc1ncc(C(F)(F)F)cc1F [Example 44] | 289 | 4.2 | > 130 | 1210 | –

From patent publication US10738031B2, “N-[(heteroaryloxy)propanyl]heteroaryl carboxamides as antagonists of orexin subtype 1 receptor activity” (Boehringer Ingelheim International GmbH, priority 2016, dated 2020)
